Laboratory results: the supplement of paper PMC10627819

How the values were obtained:
S. pneumoniae D39V [1] = test: Bliss interaction score (quartile over a dose matrix) (fitness difference); higher = more antagonism (negative = synergy)
Outline: (§1)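 Fitness was defined as normalised growth: OD595 at the start of stationary phase divided by the plate's robust no-drug mean and capped at 1. Single-drug fitness was inferred from combination measurements. The Bliss score is observed fitness minus the product of the single-drug values, summarised by quartiles across technical, biological and donor/recipient replicates.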

S. aureus DSM 20231 [2] = test: as above
Outline: as §1

B. subtilis 168 [3] = test: as above
Outline: as §1

S. aureus Newman [4] = test: as above
Outline: as §1

S. pneumoniae D39V [5] = test: fitness (endpoint OD595 vs no drug) (fraction); higher = more growth
Outline: (§2)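 Bacterial fitness was scored as optical density at the stationary-phase transition relative to the robust mean of no-drug control wells. Scores are capped at 1. The growth data were OD595 readings every 30 min for 14 h at 37 °C, background-subtracted against the first reading, from 384-well plates inoculated at OD595 0.01 in TSB, LB Lennox or CY.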

S. aureus DSM 20231 [6] = test: as above
Outline: as §2

B. subtilis 168 [7] = test: as above
Outline: as §2

S. aureus Newman [8] = test: as above
Outline: as §2
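For Bliss interaction score (quartile over a dose matrix) in this document: first quartile when negative (synergy) and third quartile when positive (antagonism).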
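For fitness (endpoint OD595 vs no drug) in this document: OD595 on entry to stationary phase over no-drug wells; at most 1.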

CCC[C@@H]1C[C@@H](C(=O)N[C@@H]([C@H]2O[C@H](SC)[C@H](O)[C@@H](O)[C@H]2O)[C@H](C)Cl)N(C)C1 [Clindamycin] + Cc1cc(NS(=O)(=O)c2ccc(N)cc2)no1 [Sulfamethoxazol]
Conditions | Bliss interaction score
B. subtilis 168 [3] | -0.0677
S. aureus DSM 20231 [2] | -0.0287
S. aureus Newman [4] | 0.0865
S. pneumoniae D39V [1] | -0.0442

fitness
Conditions | partner 1 µg/mL | partner 2 µg/mL | partner 4 µg/mL
B. subtilis 168 [7], first compound 0.0625 µg/mL | 0.571 | 0.544 | 0.579
B. subtilis 168 [7], first compound 0.125 µg/mL | 0.422 | 0.395 | 0.431
B. subtilis 168 [7], first compound 0.25 µg/mL | 0.33 | 0.321 | 0.332
S. aureus DSM 20231 [6], first compound 0.0625 µg/mL | 0.0971 | 0.0985 | 0.0862
S. aureus DSM 20231 [6], first compound 0.125 µg/mL | 0.0349 | 0.0282 | 0.0345
S. aureus Newman [8], first compound 0.0312 µg/mL | 0.757 | – | –
S. aureus Newman [8], first compound 0.125 µg/mL | 0.149 | – | –
S. pneumoniae D39V [5], first compound 0.0125 µg/mL | 0.687 | 0.711 | 0.739
S. pneumoniae D39V [5], first compound 0.025 µg/mL | 0.462 | 0.443 | 0.45
S. pneumoniae D39V [5], first compound 0.05 µg/mL | 0.206 | 0.191 | 0.219

one replicate
Conditions | fitness
B. subtilis 168 [7], first compound 0.0039 µg/mL, partner 1 µg/mL | ≥ 1
B. subtilis 168 [7], first compound 0.0039 µg/mL, partner 2 µg/mL | ≥ 1
B. subtilis 168 [7], first compound 0.0039 µg/mL, partner 4 µg/mL | ≥ 1
B. subtilis 168 [7], first compound 0.0078 µg/mL, partner 1 µg/mL | 0.884
B. subtilis 168 [7], first compound 0.0078 µg/mL, partner 2 µg/mL | 0.853
B. subtilis 168 [7], first compound 0.0078 µg/mL, partner 4 µg/mL | 0.868
B. subtilis 168 [7], first compound 0.0156 µg/mL, partner 1 µg/mL | 0.866
B. subtilis 168 [7], first compound 0.0156 µg/mL, partner 2 µg/mL | 0.981
B. subtilis 168 [7], first compound 0.0156 µg/mL, partner 4 µg/mL | 0.907
B. subtilis 168 [7], first compound 0.0625 µg/mL, partner 0.5 µg/mL | 0.666
B. subtilis 168 [7], first compound 0.125 µg/mL, partner 0.5 µg/mL | 0.466
B. subtilis 168 [7], first compound 0.25 µg/mL, partner 0.5 µg/mL | 0.363
S. aureus Newman [8], first compound 0.0312 µg/mL, partner 8 µg/mL | 0.896
S. aureus Newman [8], first compound 0.0625 µg/mL, partner 8 µg/mL | 0.934
S. aureus Newman [8], first compound 0.125 µg/mL, partner 8 µg/mL | 0.709
S. pneumoniae D39V [5], first compound 0.015 µg/mL, partner 1 µg/mL | 0.873
S. pneumoniae D39V [5], first compound 0.015 µg/mL, partner 2 µg/mL | 0.914
S. pneumoniae D39V [5], first compound 0.015 µg/mL, partner 4 µg/mL | 0.812
S. pneumoniae D39V [5], first compound 0.03 µg/mL, partner 1 µg/mL | 0.783
S. pneumoniae D39V [5], first compound 0.03 µg/mL, partner 2 µg/mL | 0.777
S. pneumoniae D39V [5], first compound 0.03 µg/mL, partner 4 µg/mL | 0.717
S. pneumoniae D39V [5], first compound 0.06 µg/mL, partner 1 µg/mL | 0.64
S. pneumoniae D39V [5], first compound 0.06 µg/mL, partner 2 µg/mL | 0.69
S. pneumoniae D39V [5], first compound 0.06 µg/mL, partner 4 µg/mL | 0.621

CCC[C@@H]1C[C@@H](C(=O)N[C@@H]([C@H]2O[C@H](SC)[C@H](O)[C@@H](O)[C@H]2O)[C@H](C)Cl)N(C)C1 [Clindamycin] + Cc1ncc([N+](=O)[O-])n1CCO [Metronidazole]
Conditions | Bliss interaction score
B. subtilis 168 [3] | 0.0367
S. aureus DSM 20231 [2] | 0.0542
S. aureus Newman [4] | 0.0887
S. pneumoniae D39V [1] | 0.0971

Conditions | fitness
B. subtilis 168 [7], first compound 0.0625 µg/mL, partner 0.625 µg/mL | 0.572
B. subtilis 168 [7], first compound 0.0625 µg/mL, partner 1.25 µg/mL | 0.54
B. subtilis 168 [7], first compound 0.0625 µg/mL, partner 2.5 µg/mL | 0.548
B. subtilis 168 [7], first compound 0.125 µg/mL, partner 0.625 µg/mL | 0.403
B. subtilis 168 [7], first compound 0.125 µg/mL, partner 1.25 µg/mL | 0.38
B. subtilis 168 [7], first compound 0.125 µg/mL, partner 2.5 µg/mL | 0.373
B. subtilis 168 [7], first compound 0.25 µg/mL, partner 0.625 µg/mL | 0.38
B. subtilis 168 [7], first compound 0.25 µg/mL, partner 1.25 µg/mL | 0.381
B. subtilis 168 [7], first compound 0.25 µg/mL, partner 2.5 µg/mL | 0.369
S. aureus DSM 20231 [6], first compound 0.125 µg/mL, partner 0.625 µg/mL | 0.0566
S. aureus DSM 20231 [6], first compound 0.125 µg/mL, partner 1.25 µg/mL | 0.0685
S. aureus DSM 20231 [6], first compound 0.125 µg/mL, partner 2.5 µg/mL | 0.0748
S. aureus Newman [8], first compound 0.0312 µg/mL, partner 0.625 µg/mL | 0.666
S. aureus Newman [8], first compound 0.0312 µg/mL, partner 1.25 µg/mL | 0.801
S. aureus Newman [8], first compound 0.0312 µg/mL, partner 2.5 µg/mL | 0.821
S. aureus Newman [8], first compound 0.0625 µg/mL, partner 1.25 µg/mL | 0.425
S. aureus Newman [8], first compound 0.0625 µg/mL, partner 2.5 µg/mL | 0.444
S. aureus Newman [8], first compound 0.125 µg/mL, partner 0.625 µg/mL | 0.0588
S. aureus Newman [8], first compound 0.125 µg/mL, partner 1.25 µg/mL | 0.056
S. aureus Newman [8], first compound 0.125 µg/mL, partner 2.5 µg/mL | 0.0505
S. pneumoniae D39V [5], first compound 0.0125 µg/mL, partner 1.25 µg/mL | 0.815
S. pneumoniae D39V [5], first compound 0.0125 µg/mL, partner 2.5 µg/mL | 0.827
S. pneumoniae D39V [5], first compound 0.0125 µg/mL, partner 5 µg/mL | 0.828
S. pneumoniae D39V [5], first compound 0.015 µg/mL, partner 1.073 µg/mL | 0.956
S. pneumoniae D39V [5], first compound 0.015 µg/mL, partner 2.145 µg/mL | 0.912
S. pneumoniae D39V [5], first compound 0.015 µg/mL, partner 4.29 µg/mL | 0.841
S. pneumoniae D39V [5], first compound 0.025 µg/mL, partner 1.25 µg/mL | 0.581
S. pneumoniae D39V [5], first compound 0.025 µg/mL, partner 2.5 µg/mL | 0.553
S. pneumoniae D39V [5], first compound 0.025 µg/mL, partner 5 µg/mL | 0.518
S. pneumoniae D39V [5], first compound 0.03 µg/mL, partner 1.073 µg/mL | 0.833
S. pneumoniae D39V [5], first compound 0.03 µg/mL, partner 2.145 µg/mL | 0.839
S. pneumoniae D39V [5], first compound 0.03 µg/mL, partner 4.29 µg/mL | 0.771
S. pneumoniae D39V [5], first compound 0.05 µg/mL, partner 1.25 µg/mL | 0.269
S. pneumoniae D39V [5], first compound 0.05 µg/mL, partner 2.5 µg/mL | 0.242
S. pneumoniae D39V [5], first compound 0.05 µg/mL, partner 5 µg/mL | 0.246
S. pneumoniae D39V [5], first compound 0.06 µg/mL, partner 1.073 µg/mL | 0.61
S. pneumoniae D39V [5], first compound 0.06 µg/mL, partner 2.145 µg/mL | 0.682
S. pneumoniae D39V [5], first compound 0.06 µg/mL, partner 4.29 µg/mL | 0.642

fitness, one replicate
Conditions | first compound 0.0039 µg/mL | first compound 0.0078 µg/mL | first compound 0.0156 µg/mL | first compound 0.0312 µg/mL | first compound 0.0625 µg/mL | first compound 0.125 µg/mL
B. subtilis 168 [7], partner 0.625 µg/mL | 0.918 | 0.528 | 0.83 | – | – | –
B. subtilis 168 [7], partner 1.25 µg/mL | 0.984 | 0.804 | 0.842 | – | – | –
B. subtilis 168 [7], partner 2.5 µg/mL | 0.907 | 0.547 | 0.867 | – | – | –
S. aureus Newman [8], partner 0.781 µg/mL | – | – | – | 0.71 | 0.533 | 0.0936
S. aureus Newman [8], partner 1.562 µg/mL | – | – | – | 0.72 | 0.582 | 0.13
S. aureus Newman [8], partner 3.124 µg/mL | – | – | – | 0.688 | 0.595 | 0.113
